# Reference: US6087119A, “Method for determining the catalytic activity of factor IXa” (Roche Diagnostics GmbH, priority 1996, dated 2000)
# Values joined by “and” are separate entries in the source; they are usually repeats but may differ in a detail not shown here. Equal values may be shown once. Read-outs that look alike come from different tables or passages of the source.
# What was measured:
# FXIa (human) = FXIa (human) (Homo sapiens, UniProt P03951); details: FXIa 0.0012 μmol/l, MeSO2-D-HHT-Gly-Arg-pNA 1.02 mmol/l, pH 7.4
# Text: FXIa Test Mixture (Concentration in the Test)
# (§1) 42 mmol/l Tris-HCl, pH 7.4
# (§2) 1.02 mmol/l MeSO2 -D-HHT-Gly-Arg-pNA
# 0.0012 μmol/l FXIa (human)
# (§3) 0-50% ethanol or ethylene glycol
# thrombin (bovine) = thrombin (bovine) (Bos taurus, UniProt P00735); details: thrombin 0.045 μmol/l, MeSO2-D-HHT-Gly-Arg-pNA 1.02 mmol/l, pH 7.4
# Text: Thrombin Test Mixture (Concentration in the Test)
# as §1, §2
# 0.045 μmol/l thrombin (bovine)
# as §3
# FXa (bovine) = FXa (bovine) (Bos taurus, UniProt P00743); details: FXa 0.088 μmol/l, MeSO2-D-HHT-Gly-Arg-pNA 1.02 mmol/l, pH 7.4
# Text: FXa Test Mixture (concentration in the Test)
# as §1, §2
# 0.088 μmol/l FXa (bovine)
# as §3
# FXIIa (human) = FXIIa (human) (Homo sapiens, UniProt P00748); details: FXIIa 0.0045 U/ml, MeSO2-D-HHT-Gly-Arg-pNA 1.02 mmol/l, pH 7.4
# Text: FXIIa Test Mixture (Concentration in the Test)
# as §1, §2
# 0.0045 U/ml FXIIa (human)
# as §3
# rFIXa (human) [1] = target: T1, rFIXa (human) (Homo sapiens, UniProt P00740); details: fluorogenic MeSO2-D-CHA-Gly-Arg-AMC 0.51 mmol/l, 0.08 μmol/l rFIXa, pH 7.4
# Text: The stimulation of human rFIXa by ethanol and ethylene glycol was examined using the peptide substrates MeSO2 -D-HHT-Gly-Arg-pNA (Pefachrom tPA, Pentapharm Ltd., Basel, Switzerland), MOC-D-Nle-Gly-Arg-pNA (Chromozym X, Boehringer Mannheim GmbH, Mannheim, Germany, Cat.No. 789763), MeSO2 -D-CHG-Gly-Arg-pNA (Pentapharm Ltd., Basel, Switzerland), MeSO2 -D-CHA-Gly-Arg-pNA (Pentapharm Ltd., Basel, Switzerland) and MeSO2 -D-CHA-Gly-Arg-AMC (Pentapharm Ltd., Basel, Switzerland).
# Test Mixture Fluorogenic (Concentration in the Test)
# 0.51 mmol/l MeSO2 -D-CHA-Gly-Arg-AMC
# 0.08 μmol/l rFIXa (human)
# Target sequence in this assay (P00740 227-461): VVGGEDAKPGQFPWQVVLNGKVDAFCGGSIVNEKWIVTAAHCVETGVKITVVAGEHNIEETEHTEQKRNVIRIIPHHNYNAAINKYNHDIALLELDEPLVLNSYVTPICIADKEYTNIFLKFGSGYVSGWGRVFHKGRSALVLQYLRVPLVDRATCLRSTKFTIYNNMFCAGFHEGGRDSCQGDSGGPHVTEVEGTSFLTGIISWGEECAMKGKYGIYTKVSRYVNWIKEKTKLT
# Target sequence in this assay (P00740 131-226): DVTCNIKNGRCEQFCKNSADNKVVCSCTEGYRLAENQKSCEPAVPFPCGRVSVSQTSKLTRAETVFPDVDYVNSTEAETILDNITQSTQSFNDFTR
# native FIXa (human) = native FIXa (human) (Homo sapiens, UniProt P00740); details: pH 7.4; for V/V0: MeSO2-D-HHT-Gly-Arg-pNA 1.02 mmol/l, 0.14 μmol/l native FIXa
# Description: The FIXa test was carried out with recombinantly produced native human FIXa as a sample and the peptide substrate MeSO2 -D-HHT-Gly-Arg-pNA (Pefachrom tPA, Pentapharm Ltd., Basel, Switzerland) or other chromogenic/fluorogenic substrates of the R-D-Xxx-Gly-Arg-pNA type (EP-B 0 034 122) in Tris-HCl buffer and the substances to be tested (alcohol, solvents and inhibitors). The reaction was started by adding FIXa.
# The test mixture was incubated at room temperature (25° C.) in a microtitre plate and the change in absorbance (ΔA/min) was measured at 405 nm using an ELISA reader. The activity and the kinetic constants were determined from the linear initial slope according to the Michaelis-Menten equation.
# as §2
# 0.14 μmol/l native FIXa (human)
# as §3
# FIXa Test Mixture (Concentration in the Test)
# rFIXa (human) [2] = target: T1, rFIXa (human); experiment: Influence of alcohols and organic solvents on the activity of rFIXa, chromogenic peptide substrates; assay type: biochemical; parameters: coding for the FIX protease domain from amino acid position 181 to 415; Met (ATG start codon) (N); made in house; details: for V/V0: pH 7.4
# Description: The reaction was started by adding FIXa.
# MeSO2 -D-HHT-Gly-Arg-pNA→MeSO2 -D-HHT-Gly-Arg+pNA measurement signal: pNA
# 0.48 μmol/l rFIXa (human)
# 0-50% (alcohol or organic solvent)
# The ratio V/V0 was calculated to illustrate the stimulation of the catalytic activity of rFIXa.
# V0, reaction rate without additives
# V, reaction rate in the presence of additives
# Test Mixture Chromogenic (Concentration in the Test)
# Target sequence in this assay (P00740 227-461 limits assumed): as the sequence (P00740 227-461) above
# Target sequence in this assay (P00740 131-226 partner limits assumed): as the sequence (P00740 131-226) above
# [3] = target: plasma kallikrein (human) (Homo sapiens, UniProt P03952); details: PKallikrein 0.0176 U/ml, MeSO2-D-HHT-Gly-Arg-pNA 1.02 mmol/l, pH 7.4
# Text: Plasma Kallikrein Test Mixture (Concentration in the Test)
# as §1, §2
# 0.0176 U/ml plasma kallikrein (human)
# as §3
# plasma kallikrein (human), sequence (P03952 391-638 limits assumed): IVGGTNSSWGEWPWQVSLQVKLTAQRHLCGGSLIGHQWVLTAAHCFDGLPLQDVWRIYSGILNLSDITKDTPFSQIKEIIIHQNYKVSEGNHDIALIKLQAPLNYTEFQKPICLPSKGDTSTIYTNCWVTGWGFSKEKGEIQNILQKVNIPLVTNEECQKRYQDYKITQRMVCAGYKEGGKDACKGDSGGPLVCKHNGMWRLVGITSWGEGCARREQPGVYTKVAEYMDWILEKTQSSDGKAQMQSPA
# plasma kallikrein (human), sequence (P03952 20-390 partner limits assumed): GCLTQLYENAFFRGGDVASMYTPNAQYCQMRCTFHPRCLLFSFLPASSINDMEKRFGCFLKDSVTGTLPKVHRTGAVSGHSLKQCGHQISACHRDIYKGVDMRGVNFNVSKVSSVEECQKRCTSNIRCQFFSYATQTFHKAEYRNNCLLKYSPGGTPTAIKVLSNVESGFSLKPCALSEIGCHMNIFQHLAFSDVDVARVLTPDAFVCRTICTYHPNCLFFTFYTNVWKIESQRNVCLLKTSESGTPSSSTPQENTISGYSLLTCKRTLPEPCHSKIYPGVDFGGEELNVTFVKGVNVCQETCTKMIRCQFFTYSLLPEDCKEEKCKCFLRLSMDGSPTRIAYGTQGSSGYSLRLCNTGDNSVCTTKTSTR
# FXIa (human), sequence (P03951 388-625 limits assumed): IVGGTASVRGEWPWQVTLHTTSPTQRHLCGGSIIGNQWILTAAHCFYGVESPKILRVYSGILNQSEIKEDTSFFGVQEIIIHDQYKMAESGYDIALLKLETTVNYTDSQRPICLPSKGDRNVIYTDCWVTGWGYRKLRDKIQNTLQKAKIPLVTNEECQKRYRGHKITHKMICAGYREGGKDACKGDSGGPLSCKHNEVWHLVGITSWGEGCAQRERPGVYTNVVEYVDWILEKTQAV
# FXIa (human), sequence (P03951 19-387 partner limits assumed): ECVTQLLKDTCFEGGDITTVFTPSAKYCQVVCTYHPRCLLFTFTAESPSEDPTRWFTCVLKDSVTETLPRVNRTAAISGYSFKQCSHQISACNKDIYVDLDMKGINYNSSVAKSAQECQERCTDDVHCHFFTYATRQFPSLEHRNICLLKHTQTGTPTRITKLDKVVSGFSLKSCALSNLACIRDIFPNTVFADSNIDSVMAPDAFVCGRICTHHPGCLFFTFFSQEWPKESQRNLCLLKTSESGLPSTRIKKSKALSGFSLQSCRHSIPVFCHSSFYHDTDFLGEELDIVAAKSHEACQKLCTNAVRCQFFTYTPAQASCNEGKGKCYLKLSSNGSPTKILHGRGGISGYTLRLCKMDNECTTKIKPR
# FXa (bovine), sequence (P00743 234-492 limits assumed): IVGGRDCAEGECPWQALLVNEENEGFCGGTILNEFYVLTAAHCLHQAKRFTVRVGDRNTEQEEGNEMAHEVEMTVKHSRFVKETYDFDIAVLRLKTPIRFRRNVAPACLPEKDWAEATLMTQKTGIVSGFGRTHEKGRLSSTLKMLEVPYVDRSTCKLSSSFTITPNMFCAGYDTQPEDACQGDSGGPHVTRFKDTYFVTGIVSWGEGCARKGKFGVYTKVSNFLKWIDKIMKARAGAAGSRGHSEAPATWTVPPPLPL
# FXa (bovine), sequence (P00743 41-180 partner limits assumed): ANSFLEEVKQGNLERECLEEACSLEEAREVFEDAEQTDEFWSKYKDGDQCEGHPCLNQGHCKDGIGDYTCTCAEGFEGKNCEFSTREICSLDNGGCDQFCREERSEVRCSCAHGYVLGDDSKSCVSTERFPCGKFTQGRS
# FXIIa (human), sequence (P00748 373-615 limits assumed, other chains not shown): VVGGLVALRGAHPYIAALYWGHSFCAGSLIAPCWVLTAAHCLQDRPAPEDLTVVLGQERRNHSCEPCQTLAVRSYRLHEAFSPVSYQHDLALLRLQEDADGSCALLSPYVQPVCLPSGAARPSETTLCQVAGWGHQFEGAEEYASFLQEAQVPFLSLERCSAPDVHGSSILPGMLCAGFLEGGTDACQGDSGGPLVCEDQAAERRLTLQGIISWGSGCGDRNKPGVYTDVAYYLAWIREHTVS
# native FIXa (human), sequence (P00740 227-461 limits assumed): as the sequence (P00740 227-461) above
# native FIXa (human), sequence (P00740 47-191 partner limits assumed): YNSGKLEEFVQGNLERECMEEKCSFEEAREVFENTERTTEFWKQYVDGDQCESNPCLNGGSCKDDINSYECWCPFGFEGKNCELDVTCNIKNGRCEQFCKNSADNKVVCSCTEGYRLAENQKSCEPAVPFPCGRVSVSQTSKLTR
compound,measurement,setting,value
OCCO [Ethylene glycol],V/V0,FXIa (human); 8% alcohol,0.922
same,V/V0,FXIa (human); 16% alcohol,0.790
same,V/V0,FXIa (human); 25% alcohol,0.569
same,V/V0,FXIa (human); 33% alcohol,0.422
same,V/V0,FXIa (human); 41% alcohol,0.275
same,V/V0,FXIa (human); 50% alcohol,0.165
same,V/V0,thrombin (bovine); 8% alcohol,0.924
same,V/V0,thrombin (bovine); 16% alcohol,0.862
same,V/V0,thrombin (bovine); 25% alcohol,0.763
same,V/V0,thrombin (bovine); 33% alcohol,0.653
same,V/V0,thrombin (bovine); 41% alcohol,0.508
same,V/V0,thrombin (bovine); 50% alcohol,0.395
same,V/V0,FXa (bovine); 8% alcohol,0.973
same,V/V0,FXa (bovine); 16% alcohol,0.902
same,V/V0,FXa (bovine); 25% alcohol,0.741
same,V/V0,FXa (bovine); 33% alcohol,0.558
same,V/V0,FXa (bovine); 41% alcohol,0.347
same,V/V0,FXa (bovine); 50% alcohol,0.191
same,V/V0,FXIIa (human); 8% alcohol,0.892
same,V/V0,FXIIa (human); 16% alcohol,0.729
same,V/V0,FXIIa (human); 25% alcohol,0.551
same,V/V0,FXIIa (human); 33% alcohol,0.355
same,V/V0,FXIIa (human); 41% alcohol,0.187
same,V/V0,FXIIa (human); 50% alcohol,0.103
same,V/V0,rFIXa (human) [1]; 8% additive,2.55
same,V/V0,rFIXa (human) [1]; 16% additive,5.59
same,V/V0,rFIXa (human) [1]; 25% additive,8.40
same,V/V0,rFIXa (human) [1]; 33% additive,8.90 and 9
same,V/V0,rFIXa (human) [1]; 41% additive,5.79
same,V/V0,rFIXa (human) [1]; 50% additive,1.44
same,"activation among plasma kallikrein, FXIIa, FXIa, FIXa, FXa and thrombin (in words)","native FIXa (human); 0-50% alcohol, MeSO2-D-HHT-Gly-Arg-pNA",only FIXa is activated
same,V/V0,native FIXa (human); 8% additive,3.13
same,V/V0,native FIXa (human); 16% additive,6.19
same,V/V0,native FIXa (human); 25% additive,9.36
same,V/V0,native FIXa (human); 33% additive,12.21
same,V/V0,native FIXa (human); 41% additive,8.29
same,V/V0,native FIXa (human); 50% additive,3.92
same,V/V0,"rFIXa (human) [2]; 8% additive, MOC-D-Nle-Gly-Arg-pNA 0.82 mmol/l, 0.48 μmol/l rFIXa",3.91
same,V/V0,"rFIXa (human) [2]; 8% additive, MeSO2-D-CHA-Gly-Arg-pNA 1.02 mmol/l, 0.48 μmol/l rFIXa",2.84
same,V/V0,"rFIXa (human) [2]; 8% additive, MeSO2-D-CHG-Gly-Arg-pNA 1.02 mmol/l, […] rFIXa",5.47
same,V/V0,"rFIXa (human) [2]; 8% additive, MeSO2-D-HHT-Gly-Arg-pNA 1.02 mmol/l, 0.48 μmol/l rFIXa",2.91
same,V/V0,"rFIXa (human) [2]; 16% additive, MOC-D-Nle-Gly-Arg-pNA 0.82 mmol/l, 0.48 μmol/l rFIXa",8.85
same,V/V0,"rFIXa (human) [2]; 16% additive, MeSO2-D-CHA-Gly-Arg-pNA 1.02 mmol/l, 0.48 μmol/l rFIXa",6.26
same,V/V0,"rFIXa (human) [2]; 16% additive, MeSO2-D-CHG-Gly-Arg-pNA 1.02 mmol/l, […] rFIXa",13.13
same,V/V0,"rFIXa (human) [2]; 16% additive, MeSO2-D-HHT-Gly-Arg-pNA 1.02 mmol/l, 0.48 μmol/l rFIXa",6.05
same,V/V0,"rFIXa (human) [2]; 25% additive, MOC-D-Nle-Gly-Arg-pNA 0.82 mmol/l, 0.48 μmol/l rFIXa",17.07
same,V/V0,"rFIXa (human) [2]; 25% additive, MeSO2-D-CHA-Gly-Arg-pNA 1.02 mmol/l, 0.48 μmol/l rFIXa",9.34
same,V/V0,"rFIXa (human) [2]; 25% additive, MeSO2-D-CHG-Gly-Arg-pNA 1.02 mmol/l, […] rFIXa",19.37
same,V/V0,"rFIXa (human) [2]; 25% additive, MeSO2-D-HHT-Gly-Arg-pNA 1.02 mmol/l, 0.48 μmol/l rFIXa",10.27
same,V/V0,"rFIXa (human) [2]; 33% additive, MOC-D-Nle-Gly-Arg-pNA 0.82 mmol/l, 0.48 μmol/l rFIXa",22.42
same,V/V0,"rFIXa (human) [2]; 33% additive, MeSO2-D-CHA-Gly-Arg-pNA 1.02 mmol/l, 0.48 μmol/l rFIXa",11.18 and 11
same,V/V0,"rFIXa (human) [2]; 33% additive, MeSO2-D-CHG-Gly-Arg-pNA 1.02 mmol/l, […] rFIXa",23.20
same,V/V0,"rFIXa (human) [2]; 33% additive, MeSO2-D-HHT-Gly-Arg-pNA 1.02 mmol/l, 0.48 μmol/l rFIXa",12.68
same,V/V0,"rFIXa (human) [2]; 41% additive, MOC-D-Nle-Gly-Arg-pNA 0.82 mmol/l, 0.48 μmol/l rFIXa",17.80
same,V/V0,"rFIXa (human) [2]; 41% additive, MeSO2-D-CHA-Gly-Arg-pNA 1.02 mmol/l, 0.48 μmol/l rFIXa",7.54
same,V/V0,"rFIXa (human) [2]; 41% additive, MeSO2-D-CHG-Gly-Arg-pNA 1.02 mmol/l, […] rFIXa",17.40
same,V/V0,"rFIXa (human) [2]; 41% additive, MeSO2-D-HHT-Gly-Arg-pNA 1.02 mmol/l, 0.48 μmol/l rFIXa",9.68
same,V/V0,"rFIXa (human) [2]; 50% additive, MOC-D-Nle-Gly-Arg-pNA 0.82 mmol/l, 0.48 μmol/l rFIXa",6.96
same,V/V0,"rFIXa (human) [2]; 50% additive, MeSO2-D-CHA-Gly-Arg-pNA 1.02 mmol/l, 0.48 μmol/l rFIXa",2.56
same,V/V0,"rFIXa (human) [2]; 50% additive, MeSO2-D-CHG-Gly-Arg-pNA 1.02 mmol/l, […] rFIXa",5.67
same,V/V0,"rFIXa (human) [2]; 50% additive, MeSO2-D-HHT-Gly-Arg-pNA 1.02 mmol/l, 0.48 μmol/l rFIXa",3.41
same,quotient V/V0 relative to that with substrate MeSO2-D-HHT-Gly-Arg-pNA,"rFIXa (human) [2]; above 25% ethylene glycol, substrates MOC-D-Nle-Gly-Arg-pNA and MeSO2-D-CHG-Gly-Arg-pNA",1.5-2 fold
same,stimulation of the activity of rFIXa,rFIXa (human) [2]; concentration range of 15-40%,5-15 fold
same,V/V0,[3]; 8% alcohol,1.05
same,V/V0,[3]; 16% alcohol,0.763
same,V/V0,[3]; 25% alcohol,0.676
same,V/V0,[3]; 33% alcohol,0.536
same,V/V0,[3]; 41% alcohol,0.478
same,V/V0,[3]; 50% alcohol,0.290
